Measurements reported in patent US20200129450A1, “COMPOSITION COMPRISING OSMUNDACETONE OR PHARMACEUTICALLY ACCEPTABLE SALT THEREOF FOR PREVENTING OR TREATING BONE DISEASE” (KORPHARM CO., LTD., priority 2016, published 2020).
Several values for one entry are separate records, joined by “and”; a condition that tells them apart may be missing. Identical values can stand only once.

How the values were obtained:
ALP activity in MC3T3-E1 = assay: Measurement of ALP activity in MC3T3-E1; format: cell-based, mouse; details: MC3T3-E1, day 14, mean±s.d.
Protocol: ALP activity was assessed using Quantichrom ALP Assay Kit (Bioassay Systems, Hayward, Calif., USA) according to manufacturer's instructions.
Briefly, 3×10^3 MC3T3-E1 cells were dispensed in a 96-well plate together with […] of complete α-MEM containing ascorbic acid (50 μg/mL) and 10 mM β-glycerophosphate per well. Here, osmundacetone (10 μM and 50 μM) was added or not added, and the medium was exchanged every 3-4 days.
On day 14 of the incubation, the colorimetric change due to ALP activity in the cell fraction was measured using a spectrophotometer plate reader (Molecular Devices, Sunnyvale, Calif., USA) at 405 nm (Kim et al., 2016). The % activation of ALP activity was shown by comparing ALP activity of cells treated with an experimental compound and ALP activity of the non-treated control cells.

[1] = tested on: osteoclasts co-incubated with MC3T3-E1 cells; assay: Co-culture of osteoclasts and osteoblasts: osteoclast proliferation and differentiation; format: cell-based, mouse; details: 10 μM
Protocol: 1×10^5 C57BL/6 mouse bone marrow mononuclear cells per well of a 48-well plate were prepared in the same manner as described above, and co-incubated together with 1.5×10^4 MC3T3-E1 murine osteoblasts, using 500 μL of α-MEM containing 10% FBS and 1% antibiotic (100 U/mL penicillin G and […] streptomycin) in the conditions of 37° C. and 5% CO2 while the medium was exchanged every three days.
Positive control cells were co-incubated together with osteoclast differentiation factors M-CSF (60 ng/mL) and RANKL (150 ng/mL), and osteoblast differentiation factors ascorbic acid (50 μg/mL) and 10 mM R-glycerophosphate.
Negative control cells were incubated by adding only M-CSF as a differentiation factor. In order to examine effects of osmundacetone on the differentiation of osteoclasts and osteoblasts, osmundacetone were administered at a final concentration of 10 μM into the positive control cells on day 1 after the cells were dispensed on the plate.
In order to investigate whether or not osmundacetone has ability to inhibit osteoclast differentiation and activate osteoblast differentiation simultaneously, bone marrow mononuclear cells collected from C57BL/6 mice and MC3T3-E1 cells as osteoblast precursor cells were co-incubated in a 48-well plate at cell concentrations of 1×10^5 bone marrow cells and 3×10^3 MC3T3-E1 cells per well. […]

normal cell lines = assay: MTT assay cytotoxicity, normal cell lines (summary); format: cell-based
Protocol: The compound isolated from Osmunda japonica, prepared in section 1 of <Example 1>, was investigated for cytotoxicity using MTT assay.
MTT assay was as follows.
Cells were incubated at 1×10^3 cells/well in a 96-well plate containing DMEM with 10% fetal bovine serum (FBS) at 5% CO2 and 37° C., and then osmundacetone was added to the cell medium, followed by incubation for 24 hours. Thereafter, 100 μL of MTT (0.5 mg/ml PBS) was administered, followed by incubation for 2 hours. Thereafter, the medium was removed from each well, and 100 μL of DMSO was added. After incubation for 10 minutes, the absorbance was measured using a microplate reader (SPCTRA MAX 340PC, Molecular Devices, USA) at 570 nm. The absorbance is an indicator showing the number of living cells, and calculated by the following equation. The reproducibility thereof was validated by three experiments.
Cell proliferation (%)=OD550(sample)/OD550(control)

RUNX2 in MC3T3-E1 cells = assay: Western blot, RUNX2 expression; format: cell-based, mouse; details: 50 μM
Protocol: In order to analyze the expression of osteoblast differentiation markers during a differentiation procedure, 3×10^5 MC3T3-E1 cells were dispensed in a 100 mm culture plate together with 10 mL of complete α-MEM containing ascorbic acid (50 μg/mL) and 10 mM R-glycerophosphate per well. Here, 50 μM osmundacetone was added or not added, and the cells were incubated at 37 […] in a 5% CO2 incubator for 21 days while the medium was exchanged every 3-4 days.
The negative control cells were cultured without differentiation factors, and the osteoblasts and a culture thereof were dispensed, and then collected on day 7, 14, or 21.
The cells were lysed using RIPA buffer, and then the expression of runt-related transcription factor 2 (RUNX2) was analyzed. Also for analysis of OCN secretion, the culture was collected, and normalized by cellular DNA.
Proteins were analyzed using SDS-PAGE on 12.5% […] gels, and transferred on polyvinylidene difluoride (PVDF) membrane through electrophoresis.
The membrane was blocked using non-fat milk, and examined using anti-RUNX2 (D1H7) rabbit monoclonal antibody (#8486, Cell Signaling Technology, MA, USA) or anti-OCN (FL-95) antibody (# sc-30045, Santa Cruz Biotechnology, TX, USA). Anti-actin antibody (# M177-3, MEDICAL & BIOLOGICAL LABORATORIES CO., LTD., Nagoya, Aichi, Japan) was used as an internal reference.
Protein bands on the blot were visualized using an enhanced chemiluminescent detection kit (# EBP-1073, PicoEPD Western Reagent, ELPIS-BIOTECH, Daejeon, Korea).

For `CC(=O)/C=C/c1ccc(O)c(O)c1` [Osmundacetone, (3E)-4-(3,4-dihydroxyphenyl)-3-buten-2-one], the “% Activation of ALP activity” value (ALP activity in MC3T3-E1; 10 μM) was 115 ± 9.4%, the “% Activation of ALP activity” value (ALP activity in MC3T3-E1; 50 μM) was 279 ± 61 % and the “% Activation of ALP activity” value (ALP activity in MC3T3-E1; 50 μM, listed as osmundacetone) was 279±61% and 280%. For the same compound, the “proliferation and differentiation of osteoclasts in co-incubation” value [1] was “completely inhibited”, the “mature osteoclasts in co-incubation” value ([1]; day 6 after administration) was “completely disappeared” and the “cell cytotoxicity on normal cell lines” value (normal cell lines; judged against IC50 of less than 100 μM as active) was “did not show cell cytotoxicity”. The “LD50 for normal cell lines” value (normal cell lines; summary range) was 2,500-5,000 μM, the “RUNX2 expression level, increase compared with non-treated positive control group” value (RUNX2 in MC3T3-E1 cells; day 7) was 1.1 times and the “RUNX2 expression level, increase compared with non-treated positive control group” value (RUNX2 in MC3T3-E1 cells; day 14) was 1.1 times. For the same compound, the “RUNX2 expression level, increase compared with non-treated positive control group” value (RUNX2 in MC3T3-E1 cells; day 21) was 2.1 times.
